Source: ChEMBL document CHEMBL4052753, “Antileishmanial potential of fused 5-(pyrazin-2-yl)-4H-1,2,4-triazole-3-thiols: Synthesis, biological evaluations and computational studies” (Bioorg Med Chem Lett, 2017)
Activity calls are given as the source filed them. The calls are words filed in the database; no cut-off is given here.

Assays:
[1] = test system: Leishmania donovani; assay: Antileishmanial activity against Leishmania donovani NHOM/IN/80/DD8 promastigote forms assessed as reduction in parasite growth after 72 hrs by MTT assay; assay type: functional; conditions: NHOM/IN/80/DD8, 72 h
[2] = Antioxidant activity assessed as DPPH free radical scavenging activity after 30 mins; assay type: functional
[3] = test system: HeLa; assay: Cytotoxicity against human HeLa cells at 500 ug/ml after 72 hrs by MTT assay; assay type: cell-based
[4] = test system: Leishmania donovani; assay: Antileishmanial activity against Leishmania donovani NHOM/IN/80/DD8 promastigote forms assessed as reduction in parasite growth up to 500 uM after 72 hrs by MTT assay; assay type: functional

| SMILES | IC50 [1] | IC50 [2] | Activity [3] | Activity [4] |
| --- | --- | --- | --- | --- |
| Oc1ccc(/C=N/n2c(S)nnc2-c2cnccn2)cc1 | 79 µM | 58.9 µM | Non-Toxic | – |
| CCc1ccc(/C=N/n2c(S)nnc2-c2cnccn2)cc1 | 201 µM | 47.7 µM | – | – |
| S=C(Nc1ccccc1)Nn1c(S)nnc1-c1cnccn1 | – | 58.8 µM | – | inactive |
| Oc1ccccc1/C=N/n1c(S)nnc1-c1cnccn1 | 102 µM | 75.9 µM | – | – |
| Sc1nnc(-c2cnccn2)n1/N=C/c1ccc(Cl)cc1 | 198 µM | 39.8 µM | – | – |
| Fc1ccc(NC(=S)Nn2c(S)nnc2-c2cnccn2)cc1 | 322 µM | 69.2 µM | – | – |
| Oc1ccc2ccccc2c1/C=N/n1c(S)nnc1-c1cnccn1 | 178 µM | 69.2 µM | – | – |
| N#Cc1ccc(/C=N/n2c(S)nnc2-c2cnccn2)cc1 | 99 µM | 47.8 µM | – | – |
| S=C(Nc1ccc(Cl)cc1Cl)Nn1c(S)nnc1-c1cnccn1 | 79 µM | 58.9 µM | – | – |
| Oc1ccc(/C=N/n2c(S)nnc2-c2cnccn2)c(O)c1 | 106 µM | 75.9 µM | – | – |
| CN(C)c1ccc(/C=N/n2c(S)nnc2-c2cnccn2)cc1 | 113 µM | 14 µM | – | – |
| S=C(Nc1ccc(Cl)cc1)Nn1c(S)nnc1-c1cnccn1 | – | 75.9 µM | – | inactive |
| CCOc1ccc(/C=N/n2c(S)nnc2-c2cnccn2)cc1OC | 190 µM | 58.8 µM | – | – |
| O=[N+]([O-])c1cccc(/C=N/n2c(S)nnc2-c2cnccn2)c1 | 347 µM | 72.4 µM | – | – |
| FC(F)(F)c1ccc(NC(=S)Nn2c(S)nnc2-c2cnccn2)cc1 | 289 µM | 58.8 µM | – | – |
| Sc1nnc(-c2cnccn2)n1/N=C/c1ccc(Cl)cc1Cl | 241 µM | 81.2 µM | – | – |
| Sc1nnc(-c2cnccn2)n1/N=C/c1ccccc1 | 95.2 µM | 52.4 µM | – | – |
| S=C(Nc1ccc2ccccc2c1)Nn1c(S)nnc1-c1cnccn1 | 336 µM | 75.9 µM | – | – |
| S=C(Nc1ccc(Cl)c(Cl)c1)Nn1c(S)nnc1-c1cnccn1 | 229 µM | 81.2 µM | – | – |
| Fc1ccc(NC(=S)Nn2c(S)nnc2-c2cnccn2)c(F)c1 | 176 µM | 58.9 µM | – | – |
| Fc1cccc(NC(=S)Nn2c(S)nnc2-c2cnccn2)c1 | 287 µM | 14 µM | – | – |
| Fc1ccc(/C=N/n2c(S)nnc2-c2cnccn2)cc1 | 382 µM | 58.8 µM | – | – |
| O=C1O[C@H]([C@@H](O)CO)C(O)=C1O [ASCORBIC ACID] | – | 14 µM | – | – |
